Data published in patent US11414381B2, “Fluorinated imide salt compound and surfactant” (Mitsubishi Materials Electronic Chemicals Co., Ltd., priority 2018, dated 2022).
Values belong to the compound of their own block, whether it stands above or below them.

Experiments:
[1] = Surface activity: surface tension of aqueous solution, Wilhelmy method; type: physicochemical
Procedure: (§1) Each of the compounds was mixed with water so that an aqueous solution having a concentration of 1,000 ppm by mass was prepared. By measuring the surface tension of the prepared aqueous solution, the surface activity was evaluated. The surface tension was measured by the Wilhelmy method using an automatic surface tensiometer CBVP-Z manufactured by Kyowa Interface Science Co., LTD. […] Therefore, in Comparative Example 2, the surface tension was measured in the saturated state.

[2] = Stability in water: decomposition rate from 19F-NMR before and after storage; type: physicochemical; conditions: stored 20 days at 20° C. to 25° C.
Procedure: (§2) Each of the compounds was mixed with water so that an aqueous solution having a concentration of 10% by mass was prepared. The prepared aqueous solution was stored for 20 days in a room adjusted to 20° C. to 25° C. By calculating a decomposition rate of the compound from ^19F—NMR spectra of the compound in the aqueous solution that were obtained before and after the storage, the stability in water was evaluated. The decomposition rate was calculated by the following formula. A compound having a decomposition rate of 3% or less was described as “No decomposition”. […] Therefore, in Comparative Example 2, the stability in water was evaluated in the saturated state. Decomposition rate (%)={1-(integration value of ^19F—NMR spectrum after storage/integration value of ^19F—NMR spectrum before storage)}×100

[3] = Dissolution in water when preparing the aqueous test solutions; type: physicochemical
Procedure: as §1, §2

[4] = Surface tension-reducing ability, background comparison with PFOA / PFOS; type: physicochemical; conditions: study conducted by the inventors
[5] = according to Japanese Patent No. 4080998; cited from earlier work

SMILES: O=S(=O)([O-])C(F)(F)C(F)(F)C(F)(F)C(F)(F)C(F)(F)C(F)(F)C(F)(F)C(F)(F)F.[K+] [Comparative Example 2, potassium salt of perfluorooctanesulfonic acid (PFOS)]
- Surface tension ([1]; saturated aqueous solution (not completely dissolved)): 41 (saturated) mN/m
- Stability in water ([2]; saturated aqueous solution): No decomposition (A compound having a decomposition rate of 3% or less was described as “No decomposition”)
- Dissolution in water ([3]; mixed with water for 10% by mass): formed a saturated aqueous solution without being completely dissolved in water
- Dissolution in water ([3]; mixed with water for 1,000 ppm by mass): formed a saturated aqueous solution without being completely dissolved in water

- Surface tension-reducing ability compared to PFOS [4]: lower than that of PFOS
SMILES: N.O=S(=O)(NS(=O)(=O)C(F)(F)C(F)(F)C(F)(F)C(F)(F)F)C(F)(F)C(F)(F)C(F)(F)C(F)(F)F [ammonium bis(perfluorobutanesulfonyl)imide]
- Ability to reduce surface tension compared to ammonium salt of PFOA [5]: more able to reduce surface tension than the ammonium salt of perfluorooctanoic acid (PFOA)

- Surface tension ([1]; aqueous solution, concentration 1,000 ppm by mass): 43 mN/m
SMILES: O=S(=O)([N-]S(=O)(=O)C(F)(F)C(F)(F)C(F)(F)C(F)(F)F)C(F)(F)C(F)(F)C(F)(F)C(F)(F)F.[K+] [Comparative Example 1, bis(perfluorobutanesulfonyl)imide potassium salt]
- Stability in water ([2]; 10% by mass aqueous solution): No decomposition (A compound having a decomposition rate of 3% or less was described as “No decomposition”)
